Data reported in ChEMBL document CHEMBL5291721, “A preclinical secondary pharmacology resource illuminates target-adverse drug reaction associations of marketed drugs” (Nat Commun, 2023).

What was measured:
[1] = biological target: T1, Thromboxane A2 receptor (Homo sapiens, UniProt P21731); type: functional, cell-based
T1 sequence (P21731 whole entry): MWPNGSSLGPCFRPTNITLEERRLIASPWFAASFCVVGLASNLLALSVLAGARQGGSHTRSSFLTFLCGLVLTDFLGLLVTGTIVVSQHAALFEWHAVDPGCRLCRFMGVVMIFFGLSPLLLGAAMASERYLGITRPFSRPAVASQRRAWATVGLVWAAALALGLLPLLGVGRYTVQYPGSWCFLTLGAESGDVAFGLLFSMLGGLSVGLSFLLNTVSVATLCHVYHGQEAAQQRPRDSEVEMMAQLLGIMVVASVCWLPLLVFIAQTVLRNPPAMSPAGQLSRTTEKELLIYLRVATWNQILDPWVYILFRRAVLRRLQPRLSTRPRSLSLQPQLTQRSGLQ

[2] = biological target: Prothrombin (Homo sapiens, UniProt P00734); type: functional
[3] = biological target: T1, Thromboxane A2 receptor; type: functional, cell-based; remark: listed apart in the source
[4] = biological target: Prostaglandin G/H synthase 1 (Homo sapiens, UniProt P23219); type: functional
[5] = biological target: T2, Alpha-1A adrenergic receptor (Homo sapiens, UniProt P35348); type: functional, cell-based
T2 sequence (P35348 whole entry): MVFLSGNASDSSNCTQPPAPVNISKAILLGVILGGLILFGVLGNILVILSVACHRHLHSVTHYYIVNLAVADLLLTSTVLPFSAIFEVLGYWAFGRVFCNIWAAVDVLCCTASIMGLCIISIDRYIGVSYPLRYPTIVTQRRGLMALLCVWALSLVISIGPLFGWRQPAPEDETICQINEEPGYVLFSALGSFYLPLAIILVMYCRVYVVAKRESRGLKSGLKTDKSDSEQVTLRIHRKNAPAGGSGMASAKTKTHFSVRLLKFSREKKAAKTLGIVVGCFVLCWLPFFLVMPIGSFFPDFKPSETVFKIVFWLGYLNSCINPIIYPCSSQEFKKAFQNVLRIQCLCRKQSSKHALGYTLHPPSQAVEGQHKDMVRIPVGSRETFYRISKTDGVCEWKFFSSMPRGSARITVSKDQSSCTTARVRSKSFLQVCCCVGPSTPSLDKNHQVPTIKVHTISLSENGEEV

[6] = biological target: Voltage-dependent L-type calcium channel subunit alpha-1C (Rattus norvegicus, UniProt P22002); type: functional
[7] = biological target: T1, Thromboxane A2 receptor
[8] = biological target: T3, Gastrin/cholecystokinin type B receptor (Homo sapiens, UniProt P32239)
T3 sequence (P32239 whole entry): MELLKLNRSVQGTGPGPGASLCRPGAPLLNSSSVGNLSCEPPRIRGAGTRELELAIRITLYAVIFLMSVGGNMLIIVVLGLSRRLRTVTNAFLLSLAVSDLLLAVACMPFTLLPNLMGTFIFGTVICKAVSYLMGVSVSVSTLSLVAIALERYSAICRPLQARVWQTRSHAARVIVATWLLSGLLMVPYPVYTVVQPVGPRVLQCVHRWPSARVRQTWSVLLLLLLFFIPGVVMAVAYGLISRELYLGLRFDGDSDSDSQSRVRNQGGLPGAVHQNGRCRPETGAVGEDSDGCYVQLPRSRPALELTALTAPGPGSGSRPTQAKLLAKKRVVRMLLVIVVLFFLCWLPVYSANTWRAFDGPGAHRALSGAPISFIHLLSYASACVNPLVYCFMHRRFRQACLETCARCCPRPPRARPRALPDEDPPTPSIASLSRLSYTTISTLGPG

[9] = biological target: Muscarinic acetylcholine receptor M3 (Homo sapiens, UniProt P20309)
[10] = biological target: T2, Alpha-1A adrenergic receptor; type: functional, cell-based; remark: listed apart in the source
[11] = biological target: Histamine H2 receptor (Homo sapiens, UniProt P25021); type: functional, cell-based
[12] = biological target: Histamine H3 receptor (Homo sapiens, UniProt Q9Y5N1)
[13] = biological target: T2, Alpha-1A adrenergic receptor; type: functional, cell-based; remark: listed apart in the source
[14] = biological target: T4, Muscarinic acetylcholine receptor M2 (Homo sapiens, UniProt P08172)
T4 sequence (P08172 whole entry): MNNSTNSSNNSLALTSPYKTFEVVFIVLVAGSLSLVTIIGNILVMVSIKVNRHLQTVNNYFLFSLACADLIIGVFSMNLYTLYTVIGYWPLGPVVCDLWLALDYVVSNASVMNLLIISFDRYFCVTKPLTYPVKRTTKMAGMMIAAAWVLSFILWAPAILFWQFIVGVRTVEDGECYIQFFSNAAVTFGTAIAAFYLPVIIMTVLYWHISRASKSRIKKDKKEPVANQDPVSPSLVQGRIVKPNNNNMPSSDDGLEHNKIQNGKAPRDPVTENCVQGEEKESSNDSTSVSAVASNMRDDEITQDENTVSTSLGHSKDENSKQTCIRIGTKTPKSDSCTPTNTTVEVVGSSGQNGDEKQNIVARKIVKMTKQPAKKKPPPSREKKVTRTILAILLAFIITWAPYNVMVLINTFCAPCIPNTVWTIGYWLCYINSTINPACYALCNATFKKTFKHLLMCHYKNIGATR
Further: assay procedure not described here.

Sequence of Muscarinic acetylcholine receptor M3 (P20309 whole entry): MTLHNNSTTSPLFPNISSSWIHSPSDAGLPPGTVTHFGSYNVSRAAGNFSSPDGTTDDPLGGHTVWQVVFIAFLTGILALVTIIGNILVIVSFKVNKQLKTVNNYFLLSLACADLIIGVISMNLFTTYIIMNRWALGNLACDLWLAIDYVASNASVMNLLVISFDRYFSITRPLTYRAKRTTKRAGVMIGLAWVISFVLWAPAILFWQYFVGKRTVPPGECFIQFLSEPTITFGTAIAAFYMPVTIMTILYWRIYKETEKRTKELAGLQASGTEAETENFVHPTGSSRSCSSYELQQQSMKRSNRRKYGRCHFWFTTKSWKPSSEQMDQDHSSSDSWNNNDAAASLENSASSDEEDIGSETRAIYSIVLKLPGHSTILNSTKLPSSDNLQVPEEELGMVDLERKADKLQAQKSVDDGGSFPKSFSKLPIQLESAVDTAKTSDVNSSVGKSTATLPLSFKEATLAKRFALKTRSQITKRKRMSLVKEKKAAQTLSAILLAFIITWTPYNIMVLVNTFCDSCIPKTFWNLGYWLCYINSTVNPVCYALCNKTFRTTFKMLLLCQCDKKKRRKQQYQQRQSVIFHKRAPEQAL
Sequence of Prostaglandin G/H synthase 1 (P23219 whole entry): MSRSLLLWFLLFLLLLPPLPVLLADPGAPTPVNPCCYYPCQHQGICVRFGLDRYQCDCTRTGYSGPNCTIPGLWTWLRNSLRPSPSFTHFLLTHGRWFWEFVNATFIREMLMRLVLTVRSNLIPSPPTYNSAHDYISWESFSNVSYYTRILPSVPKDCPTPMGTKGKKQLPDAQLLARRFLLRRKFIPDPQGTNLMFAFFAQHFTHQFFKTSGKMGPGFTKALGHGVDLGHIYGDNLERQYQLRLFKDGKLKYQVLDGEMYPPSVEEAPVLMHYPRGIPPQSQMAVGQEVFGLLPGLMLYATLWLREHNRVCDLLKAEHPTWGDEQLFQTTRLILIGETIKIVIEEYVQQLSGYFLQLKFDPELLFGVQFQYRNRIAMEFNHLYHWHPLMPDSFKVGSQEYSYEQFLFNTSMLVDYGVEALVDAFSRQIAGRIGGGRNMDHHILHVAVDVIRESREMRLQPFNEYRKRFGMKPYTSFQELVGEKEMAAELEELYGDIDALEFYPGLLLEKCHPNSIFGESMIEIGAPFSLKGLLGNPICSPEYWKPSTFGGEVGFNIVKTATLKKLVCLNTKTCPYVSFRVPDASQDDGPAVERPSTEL
Sequence of Histamine H2 receptor (P25021 whole entry): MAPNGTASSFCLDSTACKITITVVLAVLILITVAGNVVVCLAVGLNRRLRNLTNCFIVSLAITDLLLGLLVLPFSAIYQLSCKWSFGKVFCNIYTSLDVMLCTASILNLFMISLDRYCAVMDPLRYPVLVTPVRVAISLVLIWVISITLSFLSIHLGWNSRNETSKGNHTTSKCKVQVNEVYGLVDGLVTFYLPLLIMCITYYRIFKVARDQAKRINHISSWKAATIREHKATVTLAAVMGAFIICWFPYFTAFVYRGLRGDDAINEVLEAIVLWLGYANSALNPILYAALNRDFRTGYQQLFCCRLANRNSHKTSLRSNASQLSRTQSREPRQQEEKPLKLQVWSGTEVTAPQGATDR
Sequence of Voltage-dependent L-type calcium channel subunit alpha-1C (P22002 whole entry): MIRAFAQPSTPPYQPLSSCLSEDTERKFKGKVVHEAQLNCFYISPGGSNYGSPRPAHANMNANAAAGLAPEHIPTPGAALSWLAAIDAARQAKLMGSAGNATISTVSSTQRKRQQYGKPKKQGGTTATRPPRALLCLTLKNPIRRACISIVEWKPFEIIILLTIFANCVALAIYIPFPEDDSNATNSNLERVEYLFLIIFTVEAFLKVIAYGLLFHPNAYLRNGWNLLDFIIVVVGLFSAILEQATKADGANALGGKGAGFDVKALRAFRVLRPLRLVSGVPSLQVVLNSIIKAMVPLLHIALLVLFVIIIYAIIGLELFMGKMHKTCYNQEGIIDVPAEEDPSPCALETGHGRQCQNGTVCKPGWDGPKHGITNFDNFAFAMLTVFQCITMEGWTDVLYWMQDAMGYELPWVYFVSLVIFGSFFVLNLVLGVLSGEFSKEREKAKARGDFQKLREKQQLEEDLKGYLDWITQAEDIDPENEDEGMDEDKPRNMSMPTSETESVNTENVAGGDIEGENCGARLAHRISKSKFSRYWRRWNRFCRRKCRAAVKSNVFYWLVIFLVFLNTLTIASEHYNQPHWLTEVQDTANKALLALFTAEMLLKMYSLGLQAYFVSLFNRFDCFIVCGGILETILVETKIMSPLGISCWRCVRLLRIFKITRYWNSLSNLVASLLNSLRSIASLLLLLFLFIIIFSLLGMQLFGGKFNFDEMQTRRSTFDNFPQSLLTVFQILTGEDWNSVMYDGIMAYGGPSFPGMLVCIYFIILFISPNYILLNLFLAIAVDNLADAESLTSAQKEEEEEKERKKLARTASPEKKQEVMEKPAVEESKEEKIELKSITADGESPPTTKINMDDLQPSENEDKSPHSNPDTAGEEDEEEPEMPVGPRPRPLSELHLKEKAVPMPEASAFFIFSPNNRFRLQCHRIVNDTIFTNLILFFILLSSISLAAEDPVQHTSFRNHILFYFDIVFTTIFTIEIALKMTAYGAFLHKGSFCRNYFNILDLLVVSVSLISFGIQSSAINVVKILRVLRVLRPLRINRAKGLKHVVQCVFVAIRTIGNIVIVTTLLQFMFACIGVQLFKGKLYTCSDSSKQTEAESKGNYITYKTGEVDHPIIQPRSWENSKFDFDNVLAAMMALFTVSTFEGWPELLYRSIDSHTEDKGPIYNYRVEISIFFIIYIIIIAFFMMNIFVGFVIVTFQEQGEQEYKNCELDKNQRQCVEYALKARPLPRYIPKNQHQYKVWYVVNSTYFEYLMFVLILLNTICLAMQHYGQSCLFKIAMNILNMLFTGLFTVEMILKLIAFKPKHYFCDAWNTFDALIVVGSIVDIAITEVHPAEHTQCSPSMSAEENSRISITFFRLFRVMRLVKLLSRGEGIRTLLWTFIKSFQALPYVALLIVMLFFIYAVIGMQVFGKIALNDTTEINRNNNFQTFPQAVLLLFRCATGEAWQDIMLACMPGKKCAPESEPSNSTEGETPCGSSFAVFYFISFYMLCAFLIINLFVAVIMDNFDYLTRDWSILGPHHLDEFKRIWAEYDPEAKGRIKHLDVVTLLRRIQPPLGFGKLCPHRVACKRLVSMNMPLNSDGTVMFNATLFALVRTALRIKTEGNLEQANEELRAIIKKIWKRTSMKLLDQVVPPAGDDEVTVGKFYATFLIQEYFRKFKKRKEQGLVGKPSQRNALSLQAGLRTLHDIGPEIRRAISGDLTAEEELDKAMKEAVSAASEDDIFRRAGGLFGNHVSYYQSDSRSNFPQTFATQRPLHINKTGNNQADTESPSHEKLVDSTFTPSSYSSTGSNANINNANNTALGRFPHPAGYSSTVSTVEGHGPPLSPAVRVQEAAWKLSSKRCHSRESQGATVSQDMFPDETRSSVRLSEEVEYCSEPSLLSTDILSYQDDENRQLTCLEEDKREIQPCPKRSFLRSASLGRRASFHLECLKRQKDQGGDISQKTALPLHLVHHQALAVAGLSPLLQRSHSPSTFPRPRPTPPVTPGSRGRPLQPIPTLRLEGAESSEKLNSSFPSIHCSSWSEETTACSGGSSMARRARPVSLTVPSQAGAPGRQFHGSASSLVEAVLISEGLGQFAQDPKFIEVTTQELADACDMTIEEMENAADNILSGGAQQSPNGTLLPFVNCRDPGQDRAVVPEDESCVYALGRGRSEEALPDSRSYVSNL
Sequence of Histamine H3 receptor (Q9Y5N1 whole entry): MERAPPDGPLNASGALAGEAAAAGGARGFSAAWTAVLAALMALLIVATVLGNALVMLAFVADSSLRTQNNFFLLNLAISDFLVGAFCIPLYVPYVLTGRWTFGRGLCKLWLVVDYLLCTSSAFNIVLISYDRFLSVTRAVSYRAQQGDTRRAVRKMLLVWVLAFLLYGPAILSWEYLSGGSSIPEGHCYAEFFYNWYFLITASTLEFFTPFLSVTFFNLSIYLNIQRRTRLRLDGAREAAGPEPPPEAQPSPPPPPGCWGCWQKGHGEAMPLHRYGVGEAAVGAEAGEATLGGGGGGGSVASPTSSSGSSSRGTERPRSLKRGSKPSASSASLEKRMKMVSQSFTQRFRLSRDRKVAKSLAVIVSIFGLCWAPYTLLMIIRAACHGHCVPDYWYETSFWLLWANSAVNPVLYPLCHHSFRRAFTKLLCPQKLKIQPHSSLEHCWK

AC50 [6] | AC50 [7] | AC50 [8] | AC50 [9] | AC50 [10] | AC50 [11] | AC50 [12] | SMILES | AC50 [1] | AC50 [2] | AC50 [3] | AC50 [4] | AC50 [5] | AC50 [13] | AC50 [14]
 |  |  |  |  |  |  | CCCCCCOc1nsnc1C1=CCCN(C)C1 [XANOMELINE] | > 30 µM | > 30 µM | > 30 µM | > 30 µM | 13.2 µM |  | 
> 10 µM | > 30 µM | > 30 µM | > 10 µM | 0.0098 µM | 0.93 µM | > 10 µM | Clc1ccc2nsnc2c1NC1=NCCN1 [TIZANIDINE] |  |  |  |  |  |  | 
> 10 µM | > 10 µM | > 10 µM |  | > 30 µM | > 10 µM | > 10 µM | Cc1ccc(-c2cc(C(F)(F)F)nn2-c2ccc(S(N)(=O)=O)cc2)cc1 [CELECOXIB] |  |  |  |  |  |  | 
 |  |  |  |  |  |  | COCc1c(C(C)C)nc(C(C)C)c(/C=C/[C@@H](O)C[C@@H](O)CC(=O)O)c1-c1ccc(F)cc1 [CERIVASTATIN] | > 30 µM | > 30 µM | 20.1 µM | > 30 µM | > 30 µM |  | > 30 µM
> 10 µM | > 30 µM | > 30 µM |  | 0.33 µM | 0.95 µM | > 30 µM | CCCN1C[C@H](CSC)C[C@@H]2c3cccc4[nH]cc(c34)C[C@H]21 [PERGOLIDE] |  |  |  |  |  |  | 
 |  |  |  |  |  |  | CCC1=C(C)CN(C(=O)NCCc2ccc(S(=O)(=O)NC(=O)N[C@H]3CC[C@H](C)CC3)cc2)C1=O [GLIMEPIRIDE] | > 30 µM | > 30 µM | 18.5 µM | > 30 µM | > 30 µM |  | > 30 µM
> 10 µM | > 10 µM |  |  |  | > 10 µM |  | CN(C)/N=N/c1[nH]cnc1C(N)=O [DACARBAZINE] |  |  |  |  |  |  | 
 |  |  |  |  |  |  | CCc1oc2ccccc2c1C(=O)c1cc(I)c(O)c(I)c1 [BENZIODARONE] | 29 µM | > 30 µM | > 1 µM | 8.33 µM |  |  | > 30 µM
 |  |  |  |  |  |  | C[C@]12CC[C@@H]3c4ccc(O)cc4CC[C@H]3[C@@H]1C[C@@H](O)[C@@H]2O [ESTRIOL] | > 30 µM | > 30 µM | > 30 µM | 12 µM | > 30 µM |  | > 30 µM
> 10 µM | > 10 µM |  | > 30 µM | > 30 µM | > 10 µM |  | Nc1ccn([C@H]2CC[C@@H](CO)O2)c(=O)n1 [ZALCITABINE] |  |  |  |  |  | > 30 µM | 
> 10 µM | > 10 µM |  | > 30 µM |  | > 10 µM | > 10 µM | NS(=O)(=O)Cc1noc2ccccc12 [ZONISAMIDE] |  |  |  |  |  |  | 
> 10 µM | > 10 µM |  |  |  | > 10 µM |  | Clc1ccc(C(c2ccccc2Cl)C(Cl)Cl)cc1 (stereo not drawn) [MITOTANE] |  |  |  |  |  |  | 
> 30 µM | > 30 µM | > 30 µM | > 30 µM |  | > 30 µM | > 30 µM | COc1cc2nc(N(C)CCCNC(=O)C3CCCO3)nc(N)c2cc1OC (stereo not drawn) [ALFUZOSIN] |  |  |  |  |  |  | 

SMILES | AC50 [6] | AC50 [7] | AC50 [8] | AC50 [9] | AC50 [10] | AC50 [11] | AC50 [12] | AC50 [1] | AC50 [2] | AC50 [3] | AC50 [4] | AC50 [5] | AC50 [13] | AC50 [14]
COc1ccc(CC(C)(C)NC[C@H](O)c2cc(O)cc3c2OCC(=O)N3)cc1 [OLODATEROL] |  |  |  | > 30 µM | > 30 µM |  | > 30 µM |  |  |  |  |  | 0.055 µM | 
c1cnc(N2CCN(Cc3ccc4c(c3)OCO4)CC2)nc1 [PIRIBEDIL] |  |  |  | > 30 µM | > 30 µM |  | > 30 µM |  |  |  |  |  | 23 µM | 
Cc1cccc(Nc2ccccc2C(=O)O)c1C [MEFENAMIC ACID] | > 10 µM | > 10 µM |  |  |  | > 10 µM | > 10 µM | > 30 µM | > 30 µM | > 30 µM | 0.0115 µM | > 30 µM |  | > 30 µM
